Experimental data reported in patent publication US20220389061A1, “IMMUNOMODULATORS” (priority 2019, published 2022).
Starred links: 1 amine or outer side, 2 acyl side, 3 side chain; linkers in the order of their positions; H or OH if unused. Positions of bridges follow the written chain, without caps; N, C: chain ends. Non-standard residues stand in square brackets, D forms with d. Residues, ends and D or L forms follow the SMILES beside them. Groups on a side chain read outwards from the residue. *: point of attachment. Trp(1-CH2CO2Me) = COC(=O)Cn1cc(C[C@H](N)C(=O)O)c2ccccc21; Trp(1-CH2COOH) = N[C@@H](Cc1cn(CC(=O)O)c2ccccc12)C(=O)O; NH(benzothiophen-5-yl) = c1cc2cc(N*)ccc2s1; Benzofuran(2-CO) = O=C(c1cc2ccccc2o1)*; X24 = COc1cc(NC(=S)*)ccc1-n1cnc(C)n1; Hyp = O=C(O)[C@@H]1C[C@@H](O)CN1; X55 = COc1cc(NC(=S)*)cc(OC)c1; NMeNle = CCCC[C@H](NC)C(=O)O; X6 = CCCCCCCOc1ccc(N*)cc1; NMeA = CN[C@@H](C)C(=O)O; Dab = NCC[C@H](N)C(=O)O; Dap = NC[C@H](N)C(=O)O; CO = O=C([*:1])[*:2]

Target: T1, PD-1/PD-L1 (Homo sapiens, UniProt Q9NZQ7)
T1 construct: TVMV protease site linker (C); made in house; host or cells: HEK293T cells
Assay: PD-1/PD-L1 Homogenous Time-Resolved Fluorescence (HTRF) binding assay
Conditions: PD-L1-His 10 nM pre-incubated with inhibitor, PD-1-Ig 20 nM; read-out: HTRF IC50
Procedure, shortened: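 Compounds preincubated 15 min with PD-L1-His (10 nM final), then PD-1-Ig (20 nM final) added for 15 min in dPBS with 0.1% BSA, 0.05% Tween-20. Detection by Eu-cryptate anti-Ig (1 nM) and APC anti-His (20 nM) HTRF.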

T1 sequence (Q9NZQ7 18-239): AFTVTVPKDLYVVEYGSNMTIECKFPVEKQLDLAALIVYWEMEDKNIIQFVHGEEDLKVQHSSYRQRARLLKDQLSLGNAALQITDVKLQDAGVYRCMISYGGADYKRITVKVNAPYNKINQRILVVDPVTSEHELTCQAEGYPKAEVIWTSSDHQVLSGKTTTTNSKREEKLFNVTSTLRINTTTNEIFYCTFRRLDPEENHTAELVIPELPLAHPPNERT

Compound | IC50
CCCC[C@H]1C(=O)N(C)[C@@H](CCCC)C(=O)N[C@@H](CC(C)C)C(=O)N[C@H](C(=O)NCC(N)=O)CSCC(=O)N[C@@H](Cc2ccc(O)cc2)C(=O)N(C)[C@@H](C)C(=O)N[C@@H](CC(N)=O)C(=O)N2CCC[C@H]2C(=O)N[C@@H](CNC(=S)Nc2cc(OC)cc(OC)c2)C(=O)N[C@@H](CC(C)C)C(=O)N2C[C@H](O)C[C@H]2C(=O)N[C@@H](Cc2c[nH]c3ccccc23)C(=O)N[C@@H](CCN)C(=O)N[C@@H](Cc2cn(CC(=O)O)c3ccccc23)C(=O)N1C [Example 1098] ({CH2CO}-Y[NMeA]NP[Dap](X55)L[Hyp]W[Dab][Trp(1-CH2COOH)][NMeNle][NMeNle]LCG-NH2; thioether N-14) | 3.1 nM
CCCC[C@H]1C(=O)N(C)[C@@H](CCCC)C(=O)N[C@@H](CC(C)C)C(=O)N[C@H](C(=O)NCC(N)=O)CSCC(=O)N[C@@H](Cc2ccc(O)cc2)C(=O)N(C)[C@@H](C)C(=O)N[C@@H](CC(N)=O)C(=O)N2CCC[C@H]2C(=O)N[C@@H](CNC(=S)Nc2ccc(-n3cnc(C)n3)c(OC)c2)C(=O)N[C@@H](CC(C)C)C(=O)N2C[C@H](O)C[C@H]2C(=O)N[C@@H](Cc2c[nH]c3ccccc23)C(=O)N[C@@H](CCN)C(=O)N[C@@H](Cc2cn(CC(=O)O)c3ccccc23)C(=O)N1C [Example 1054] ({CH2CO}-Y[NMeA]NP[Dap](X24)L[Hyp]W[Dab][Trp(1-CH2COOH)][NMeNle][NMeNle]LCG-NH2; thioether N-14) | 3.5 nM
CCCCCCCOc1ccc(NC(=O)NC[C@@H]2NC(=O)[C@@H]3CCCN3C(=O)[C@H](CC(N)=O)NC(=O)[C@H](C)N(C)C(=O)[C@H](Cc3ccc(O)cc3)NC(=O)CSC[C@@H](C(=O)NCC(N)=O)NC(=O)[C@H](CC(C)C)NC(=O)[C@H](CCCC)N(C)C(=O)[C@H](CCCC)N(C)C(=O)[C@H](Cc3cn(CC(=O)O)c4ccccc34)NC(=O)[C@H](CCN)NC(=O)[C@H](Cc3c[nH]c4ccccc34)NC(=O)[C@@H]3C[C@@H](O)CN3C(=O)[C@H](CC(C)C)NC2=O)cc1 [Example 1089] ({CH2CO}-Y[NMeA]NP[Dap]([CO-X6])L[Hyp]W[Dab][Trp(1-CH2COOH)][NMeNle][NMeNle]LCG-NH2; thioether N-14) | 12 nM
CCCC[C@H]1C(=O)N(C)[C@@H](CCCC)C(=O)N[C@@H](CC(C)C)C(=O)N[C@H](C(=O)NCC(N)=O)CSCC(=O)N[C@@H](Cc2ccc(O)cc2)C(=O)N(C)[C@@H](C)C(=O)N[C@@H](CC(N)=O)C(=O)N2CCC[C@H]2C(=O)N[C@@H](CNC(=O)Nc2ccc3sccc3c2)C(=O)N[C@@H](CC(C)C)C(=O)N2C[C@H](O)C[C@H]2C(=O)N[C@@H](Cc2c[nH]c3ccccc23)C(=O)N[C@@H](CCNC(=O)Nc2ccc3sccc3c2)C(=O)N[C@@H](Cc2cn(CC(=O)OC)c3ccccc23)C(=O)N1C [Example 3057] ({CH2CO}-Y[NMeA]NP[Dap]([CO-NH(benzothiophen-5-yl)])L[Hyp]W[Dab]([CO-NH(benzothiophen-5-yl)])[Trp(1-CH2CO2Me)][NMeNle][NMeNle]LCG-NH2; thioether N-14) | 34 nM
CCCC[C@H]1C(=O)N(C)[C@@H](CCCC)C(=O)N[C@@H](CC(C)C)C(=O)N[C@H](C(=O)NCC(N)=O)CSCC(=O)N[C@@H](Cc2ccc(O)cc2)C(=O)N(C)[C@@H](C)C(=O)N[C@@H](CC(N)=O)C(=O)N2CCC[C@H]2C(=O)N[C@@H](CNC(=O)c2cc3ccccc3o2)C(=O)N[C@@H](CC(C)C)C(=O)N2C[C@H](O)C[C@H]2C(=O)N[C@@H](Cc2c[nH]c3ccccc23)C(=O)N[C@@H](CCNC(=O)c2cc3ccccc3o2)C(=O)N[C@@H](Cc2cn(CC(=O)O)c3ccccc23)C(=O)N1C [Example 3036] ({CH2CO}-Y[NMeA]NP[Dap](Benzofuran(2-CO))L[Hyp]W[Dab](Benzofuran(2-CO))[Trp(1-CH2COOH)][NMeNle][NMeNle]LCG-NH2; thioether N-14) | 2.7 nM
